Experimental data published in the supplement of paper PMC4862054.

Tests used:
[1] = system: DU-4475; conditions: 72 h
How it was run: (§1)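 For viability and cell death testing, 384-well plates carried compound at 5 concentrations in 10-fold steps over a compound-specific 10,000-fold range, and breast cancer cell lines were seeded in 20 µl suspension. After 72 h incubation, cell death was read by CellTox Green fluorescence (485/520 nm) before viability was read by CellTiter-Glo luminescence. EC50 was fitted from the dose-response curves and censored at the top concentration. Normalisation on each plate was to 0.1 % DMSO and a positive kill control.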

[2] = system: HCC1143; conditions: 72 h
How it was run: as §1

[3] = system: HCC1599; conditions: 72 h
How it was run: as §1

[4] = system: HDQ-P1; conditions: 72 h
How it was run: as §1

[5] = system: MFM-223; conditions: 72 h
How it was run: as §1

[6] = system: CAL-51; conditions: 72 h
Method: (§2)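 Drug sensitivity and resistance testing (DSRT) of breast cancer cell lines in 384-well plates, 5 concentrations in 10-fold dilutions over a compound-specific 10,000-fold range. After 72 h, cytotoxicity was read by CellTox Green fluorescence and viability by CellTiter-Glo luminescence (multiplexed), normalised to DMSO and benzethonium chloride controls. EC50 is the inflection point of the fitted dose-response curve (bottom asymptote free, so it can be relative for partial curves) and is censored at the highest tested concentration. Rows with DSS 0 (no meaningful response) were excluded.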

[7] = system: DU-4475; conditions: 72 h; remark: listed apart in the source
Method: as §2

[8] = system: HCC1599; conditions: 72 h; remark: listed apart in the source
Method: as §2

[9] = system: MDA-MB-436; conditions: 72 h
Method: as §2

[10] = system: MDA-MB-468; conditions: 72 h
Method: as §2

[11] = system: CAL-148; test: drug sensitivity score (DSS), CellTiter-Glo (DSS (AUC-based score)); higher = stronger drug effect (viability inhibition or cytotoxicity); extreme values may be limits of the assay; conditions: incubation time: 72 h
How it was run: (§3)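 A drug sensitivity score was derived from the area under each fitted dose-response curve. Breast cancer cells (20 µl suspension) were seeded onto compound in 384-well plates, using 5 concentrations 10-fold apart over a compound-specific 10,000-fold range, and incubated 72 h. Readouts were CellTox Green fluorescence and then CellTiter-Glo luminescence, with every plate normalised to 0.1 % DMSO and a positive kill control.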

[12] = system: CAL-85-1; test: as above; conditions: incubation time: 72 h
How it was run: as §3

Structure (SMILES): NS(=O)(=O)OC[C@@H]1C[C@@H](n2ccc3c(N[C@H]4CCc5ccccc54)ncnc32)C[C@@H]1O [Pevonedistat]
- EC50, CellTiter-Glo [1]: 0.137 µM
- EC50, CellTiter-Glo [2]: 0.845 µM
- EC50, CellTiter-Glo [3]: 0.365 µM
- EC50, CellTiter-Glo [4]: 1.56 µM
- EC50, CellTiter-Glo [5]: 0.155 µM
- EC50, CellTox Green [6]: 0.0826 µM
- EC50, CellTox Green [7]: 0.327 µM
- EC50, CellTox Green [8]: 1.84 µM
- EC50, CellTox Green [9]: 1.51 µM
- EC50, CellTox Green [10]: 0.436 µM
- drug sensitivity score [11]: 0
- drug sensitivity score [12]: 11.9
